Measured values from US20130071482A1, “BLOCK COPOLYMER CROSS-LINKED NANOASSEMBLIES AS MODULAR DELIVERY VEHICLES” (THE UNIVERSITY OF KENTUCKY RESEARCH FOUNDATION, priority 2011, published 2013).

Assays:
[1] = Drug release experiment (dialysis of DOX-loaded particles, sink condition); format: physicochemical; details: 37° C., from AUC of release-time curve, normalized to initial drug loading (100%)
Protocol: Proton nuclear magnetic resonance (^1H-NMR, Varian, 400 MHz) measurements were used to determine the compositions of block copolymers and nanoassemblies in DMSO-d6 and D2O, respectively. The number average molecular weights (Mn) of block copolymers and nanoassemblies were calculated by gel permeation chromatography (GPC, Shimadzu LC20, Japan) equipped with RI and UV detectors, using PEG standard and a phosphate buffered saline (PBS, 1×) mobile phase. Particle sizes of nanoassemblies were determined by dynamic light scattering (DLS, Zetasizer Nano 90, Malvern, UK) measurements at a 173° fixed angle. All samples were prepared in aqueous solutions at 2 mg/mL and filtered through 0.22 μm filters prior to GPC and DLS analyses. DOX loading and release were quantified using ultraviolet-visible spectrophotometry spectroscopy (UV-Vis, absorbance at 480 nm, SpectraMax M5, Molecular Devices, USA).
All particles entrapping DOX were dissolved in deionized water (0.5 mg/mL), and transferred to six dialysis cassettes (MWCO 10 kDa). […] Drug release patterns were monitored under the sink condition as the volume of dialysis medium was maintained 3,000 times greater (5 L) than the volume of the sample solution in the dialysis cassettes (1.65 mL/cassette, n=3). […] DOX remaining in each dialysis cassette was measured at 0, 1, 3, 6, 10, 24, 34, and 48 h. […]

[2] = test system: human non-small cell lung cancer A549 cell line; assay: Cytotoxicity assay (resazurin cell viability); format: cell-based; details: A549 cells
Protocol: A human non-small cell lung cancer A549 cell line was used to determine the cytotoxicity of empty nanoassemblies, DOX-loaded nanoassemblies, and free DOX. Cells were seeded in a 96-well plate (5,000 cells/well) in 100 μL F12K cell culture medium containing 10% FBS. After 24 hours, serial dilutions of the samples were added to the cell plate. Cells were then incubated at 37° C., 5% CO2, for 72 hours, followed by cell viability measurement using a resazurin assay that indicates mitochondrial metabolic activity in live cells. Resazurin solution in PBS (10 μL, 1 mM) was added to the sample-treated cells at the end of the 72-hour treatment period. Three hours later, the fluorescence of resorufin, metabolited resazurin, was measured at 560 nm (excitation)/590 nm (emission). The half maximal inhibitory concentration (IC50) was calculated with Prism software (GraphPad, USA).

Accumulated drug release at pH 5.0 in 48 h ([1]; pH 5.0, 48 h): 100%
Accumulated drug release at pH 7.4 in 48 h ([1]; pH 7.4, 48 h): 100%
Compound: COc1cccc2c1C(=O)c1c(O)c3c(c(O)c1C2=O)C[C@@](O)(C(=O)CO)C[C@@H]3O[C@H]1C[C@H](N)[C@H](O)[C@H](C)O1.Cl [Free DOX, doxorubicin hydrochloride]
IC50 ([2]; 72 hours incubation, resazurin assay, DOX equivalent): 0.53 ± 0.2 µM
Relative cytotoxicity ([2]; IC50 relative to free DOX (fold)): 1.00
